Test results published in US20030092691A1 (priority 2001, published 2003).

Test: Study of solubility of micronized progesterone in various oils (concentration at saturation)
Type: physicochemical
Conditions: in refined olive oil; one hour stirring at room temperature, filtered 0.45 μm
Method: The saturated solutions were then prepared as follows: The saturated solutions in each oil were maintained for one hour with stirring at room temperature, and were then filtered on a nylon filter syringe with a diameter of 25 mm, at 0.45 μm.

Compound: CC(=O)[C@H]1CC[C@H]2[C@@H]3CCC4=CC(=O)CC[C@]4(C)[C@H]3CC[C@]12C [Micronized progesterone, progesterone]
- CONCENTRATION AT SATURATION: 19.56 mg/mL
